Results on 37 compounds are retold here after the Kinase Knowledgebase extract (Sharma et al. 2016).

Assay [1] has as its target PIK3CD (Human) (UniProt O00329). Description: Enzyme Assay.
Assay [2] has the same target. The assay can be described thus: Cell-Based Assay. The settings on record: u937.
Another assay deals with PIK3CG (human) (UniProt P48736). The assay can be described thus: Assessment of PIK3CG Kinase Activity.
A further assay deals with PIK3CA (human) (UniProt P42336). Description: Assessment of PIK3CA Kinase Activity.

Each structure is given as a SMILES string.

Chain of PIK3CG (human) (P48736 whole entry, looked up): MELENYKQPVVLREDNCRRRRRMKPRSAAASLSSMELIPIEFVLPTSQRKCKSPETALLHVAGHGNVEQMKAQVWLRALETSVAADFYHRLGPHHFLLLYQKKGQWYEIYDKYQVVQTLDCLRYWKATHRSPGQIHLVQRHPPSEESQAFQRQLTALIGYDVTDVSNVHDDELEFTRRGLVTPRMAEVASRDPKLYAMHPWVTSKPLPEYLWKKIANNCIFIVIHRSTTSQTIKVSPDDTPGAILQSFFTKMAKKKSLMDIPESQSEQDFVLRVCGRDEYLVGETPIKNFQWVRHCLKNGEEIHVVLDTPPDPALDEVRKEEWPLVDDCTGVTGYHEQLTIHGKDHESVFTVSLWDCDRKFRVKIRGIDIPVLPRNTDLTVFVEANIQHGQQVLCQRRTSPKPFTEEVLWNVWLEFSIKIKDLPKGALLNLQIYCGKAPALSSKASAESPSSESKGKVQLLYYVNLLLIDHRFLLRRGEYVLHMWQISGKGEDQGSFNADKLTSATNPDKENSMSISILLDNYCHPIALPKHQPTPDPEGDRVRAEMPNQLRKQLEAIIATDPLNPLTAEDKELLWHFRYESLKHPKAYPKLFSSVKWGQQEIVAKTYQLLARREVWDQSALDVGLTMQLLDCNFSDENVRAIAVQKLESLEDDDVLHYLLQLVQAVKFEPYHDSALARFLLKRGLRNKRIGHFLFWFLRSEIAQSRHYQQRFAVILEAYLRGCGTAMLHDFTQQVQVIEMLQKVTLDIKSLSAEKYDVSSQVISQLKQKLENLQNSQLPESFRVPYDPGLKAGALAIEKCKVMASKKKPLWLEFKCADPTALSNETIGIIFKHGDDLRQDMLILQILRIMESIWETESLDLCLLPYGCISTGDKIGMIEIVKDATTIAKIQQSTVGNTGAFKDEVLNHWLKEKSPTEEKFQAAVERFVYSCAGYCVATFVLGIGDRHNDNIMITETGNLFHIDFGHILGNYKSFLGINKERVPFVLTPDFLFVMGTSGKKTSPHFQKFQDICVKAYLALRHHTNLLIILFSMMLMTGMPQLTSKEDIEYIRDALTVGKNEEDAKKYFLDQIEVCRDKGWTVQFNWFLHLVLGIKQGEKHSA
Chain of PIK3CA (human) (P42336 whole entry, looked up): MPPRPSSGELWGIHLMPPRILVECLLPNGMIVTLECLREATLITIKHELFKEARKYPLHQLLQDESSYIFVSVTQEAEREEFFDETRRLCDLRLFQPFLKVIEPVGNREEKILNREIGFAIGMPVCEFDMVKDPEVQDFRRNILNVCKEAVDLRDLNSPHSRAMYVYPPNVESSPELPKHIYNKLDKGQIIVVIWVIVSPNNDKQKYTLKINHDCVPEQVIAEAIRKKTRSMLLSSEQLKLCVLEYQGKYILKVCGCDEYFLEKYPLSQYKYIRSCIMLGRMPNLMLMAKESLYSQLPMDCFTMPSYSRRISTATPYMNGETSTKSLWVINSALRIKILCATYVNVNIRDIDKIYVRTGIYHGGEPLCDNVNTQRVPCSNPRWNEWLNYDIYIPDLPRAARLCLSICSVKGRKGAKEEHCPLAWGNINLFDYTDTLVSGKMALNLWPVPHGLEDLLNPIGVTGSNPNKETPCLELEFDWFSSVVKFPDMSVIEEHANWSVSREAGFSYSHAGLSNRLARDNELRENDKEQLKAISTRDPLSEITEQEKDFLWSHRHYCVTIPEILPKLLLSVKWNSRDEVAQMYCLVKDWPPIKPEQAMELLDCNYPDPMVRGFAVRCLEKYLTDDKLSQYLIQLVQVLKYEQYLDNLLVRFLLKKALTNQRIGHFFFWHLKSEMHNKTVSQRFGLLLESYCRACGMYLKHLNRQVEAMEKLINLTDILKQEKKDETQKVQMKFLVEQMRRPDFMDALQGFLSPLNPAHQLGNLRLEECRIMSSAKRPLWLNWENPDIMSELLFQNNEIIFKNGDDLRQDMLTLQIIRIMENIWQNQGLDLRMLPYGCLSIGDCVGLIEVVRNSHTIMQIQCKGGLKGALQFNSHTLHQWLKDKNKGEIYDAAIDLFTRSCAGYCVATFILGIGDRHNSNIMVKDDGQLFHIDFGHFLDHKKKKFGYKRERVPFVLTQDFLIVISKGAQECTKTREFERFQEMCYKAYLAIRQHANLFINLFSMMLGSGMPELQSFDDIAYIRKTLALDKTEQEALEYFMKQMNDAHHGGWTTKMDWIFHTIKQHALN
Chain of PIK3CD (Human) (O00329 whole entry, looked up): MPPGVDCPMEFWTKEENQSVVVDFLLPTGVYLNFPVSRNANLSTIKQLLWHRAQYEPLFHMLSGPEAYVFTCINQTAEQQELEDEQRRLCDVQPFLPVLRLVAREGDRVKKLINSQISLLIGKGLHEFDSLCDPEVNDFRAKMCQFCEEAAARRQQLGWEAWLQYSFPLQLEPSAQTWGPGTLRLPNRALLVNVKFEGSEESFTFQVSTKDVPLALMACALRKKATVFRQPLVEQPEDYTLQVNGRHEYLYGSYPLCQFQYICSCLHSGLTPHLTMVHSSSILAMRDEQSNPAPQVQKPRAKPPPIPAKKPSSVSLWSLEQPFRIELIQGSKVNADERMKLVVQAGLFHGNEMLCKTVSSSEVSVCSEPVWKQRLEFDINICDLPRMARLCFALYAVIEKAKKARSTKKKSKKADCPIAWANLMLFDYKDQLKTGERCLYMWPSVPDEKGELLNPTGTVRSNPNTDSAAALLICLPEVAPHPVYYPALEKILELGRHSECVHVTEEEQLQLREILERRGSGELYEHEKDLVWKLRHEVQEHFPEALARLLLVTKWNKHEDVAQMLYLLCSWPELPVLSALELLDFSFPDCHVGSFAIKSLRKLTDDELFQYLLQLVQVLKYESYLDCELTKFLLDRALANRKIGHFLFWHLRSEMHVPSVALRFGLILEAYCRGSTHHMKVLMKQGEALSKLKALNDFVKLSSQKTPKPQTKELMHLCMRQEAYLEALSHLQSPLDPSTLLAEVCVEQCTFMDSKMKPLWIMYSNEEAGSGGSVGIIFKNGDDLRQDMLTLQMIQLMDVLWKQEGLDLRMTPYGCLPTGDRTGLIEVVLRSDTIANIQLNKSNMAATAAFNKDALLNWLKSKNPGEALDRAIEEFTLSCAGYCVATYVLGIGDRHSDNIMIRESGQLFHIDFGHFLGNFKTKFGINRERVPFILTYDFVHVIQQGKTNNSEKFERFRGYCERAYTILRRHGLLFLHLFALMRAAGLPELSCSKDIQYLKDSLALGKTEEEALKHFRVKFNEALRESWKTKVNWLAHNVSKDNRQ

By IC50 is commonly meant the point on the concentration scale where inhibition reaches its midpoint. Higher therefore signals weaker potency in that assay. As for `COCCOCCOCC#Cc1cccc2nc(Cn3nc(-c4cccc(O)c4)c4c(N)ncnc43)n(Cc3ccccc3Cl)c(=O)c12`, the IC50 was less than 0.05 µM against PIK3CD (Human) [1], less than 0.01 µM against PIK3CD (Human) [2] and 0.05 to 1 µM on PIK3CG (human).
Take `CC(=O)NCC(=O)NCC#Cc1cccc2nc(Cn3nc(-c4cccc(O)c4)c4c(N)ncnc43)n(Cc3ccccc3Cl)c(=O)c12`: the IC50 on PIK3CD (Human) [1] was less than 0.05 µM; against PIK3CD (Human) [2], less than 0.01 µM; at PIK3CG (human) it was less than 0.05 µM; at PIK3CA (human), 0.05 to 1 µM.
Take `C#Cc1cccc2nc(Cn3nc(-c4ccc(O)cc4)c4c(N)ncnc43)n(Cc3cccc(C#N)c3)c(=O)c12`: the IC50 is less than 0.05 µM on PIK3CD (Human) [1], less than 0.01 µM on PIK3CD (Human) [2], 0.05 to 1 µM against PIK3CG (human) and 0.05 to 1 µM at PIK3CA (human).
For `Cc1cnc(Cn2c(Cn3nc(-c4cccc(O)c4)c4c(N)ncnc43)nc3cccc(C#CCCCC(=O)N4CCOCC4)c3c2=O)cn1`, the IC50 against PIK3CD (Human) [1] is less than 0.05 µM; against PIK3CD (Human) [2], less than 0.01 µM; on PIK3CG (human), less than 0.05 µM; against PIK3CA (human), 0.05 to 1 µM.
On to `Cn1cc(Cn2c(Cn3nc(-c4cccc(O)c4)c4c(N)ncnc43)nc3cccc(C#CCCCC(=O)N4CCOCC4)c3c2=O)cn1`, for which the half-maximal inhibitory concentration (IC50) against PIK3CD (Human) [2] was less than 0.01 µM.
On to `COCCOCC#Cc1cccc2nc(Cn3nc(-c4cccc(O)c4)c4c(N)ncnc43)n(Cc3ccccc3Cl)c(=O)c12`, for which the IC50 against PIK3CD (Human) [1] was less than 0.05 µM; on PIK3CD (Human) [2], less than 0.01 µM; against PIK3CG (human), 0.05 to 1 µM; at PIK3CA (human), 0.05 to 1 µM.
The compound `Nc1ncnc2c1c(-c1ccc(O)cc1)nn2Cc1nc2cccc(C#CCCCC(=O)N3CCOCC3)c2c(=O)n1Cc1cc2ccccc2s1` came in with an IC50 at PIK3CD (Human) [2] of less than 0.01 µM.
Compound `C#Cc1cccc2nc(Cn3nc(-c4ccc(O)cc4)c4c(N)ncnc43)n(Cc3ccc(S(C)(=O)=O)cc3)c(=O)c12` had an IC50 against PIK3CD (Human) [2] of less than 0.01 µM.
Same read-out and setting: the value for `CN(C)C1CCN(C(=O)CCCC#Cc2cccc3nc(Cn4nc(-c5ccc(O)cc5)c5c(N)ncnc54)n(Cc4ccccc4Cl)c(=O)c23)C1` (centres undefined) was less than 0.01 µM; that for `Nc1ncnc2c1c(-c1cccc(O)c1)nn2Cc1nc2cccc(C#CCOCCN3CCOCC3)c2c(=O)n1Cc1ccccc1Cl` was less than 0.01 µM; that for `CN1CCN(CCN(C)C(=O)CCCC#Cc2cccc3nc(Cn4nc(-c5ccc(O)cc5)c5c(N)ncnc54)n(Cc4ccccc4Cl)c(=O)c23)CC1` was less than 0.01 µM.
Still for that read-out and setting: the value for `Nc1ncnc2c1c(-c1ccc(O)cc1)nn2Cc1nc2cccc(C#CCCCO)c2c(=O)n1Cc1ccccc1Cl` was less than 0.01 µM.
Regarding `COCC#Cc1cccc2nc(Cn3nc(-c4ccc(O)cc4)c4c(N)ncnc43)n(Cc3ccccc3Cl)c(=O)c12`, at PIK3CD (Human) [2], the IC50 was less than 0.01 µM.
Compound `COc1cc(Cn2c(Cn3nc(-c4ccc(O)cc4)c4c(N)ncnc43)nc3cccc(C#CCCCC(=O)N4CCOCC4)c3c2=O)cc(C(F)(F)F)c1` showed an IC50 on PIK3CD (Human) [2] of less than 0.01 µM.
The compound `C#Cc1cccc2nc(Cn3nc(-c4ccc(O)cc4)c4c(N)ncnc43)n(Cc3ccc(C(F)(F)F)cc3)c(=O)c12` came in with an IC50 on PIK3CD (Human) [2] of less than 0.01 µM.
At PIK3CD (Human) [2], `Nc1ncnc2c1c(-c1ccc(O)cc1)nn2Cc1nc2cccc(C#CCCCC(=O)NCCN3CCOCC3)c2c(=O)n1Cc1ccccc1Cl` had an IC50 of less than 0.01 µM.
On the same count and under the same terms, the value for `C#Cc1cccc2nc(Cn3nc(-c4ccc(O)cc4)c4c(N)ncnc43)n(Cc3ccc(OC)cc3F)c(=O)c12` was less than 0.01 µM.
As to `C#Cc1cccc2nc(Cn3nc(-c4ccc(O)cc4)c4c(N)ncnc43)n(Cc3ccc(F)cc3)c(=O)c12`, the IC50 at PIK3CD (Human) [2] was less than 0.01 µM.
With `C#Cc1cccc2nc(Cn3nc(-c4ccc(O)c(F)c4)c4c(N)ncnc43)n(Cc3ccccc3Cl)c(=O)c12`, at PIK3CD (Human) [2], the IC50 was less than 0.01 µM.
The same measure, in the same setting: the value for `C#Cc1cccc2nc(Cn3nc(-c4ccc(F)c(O)c4)c4c(N)ncnc43)n(Cc3ccccc3Cl)c(=O)c12` was less than 0.01 µM; that for `C#Cc1cccc2nc(Cn3nc(-c4ccc(O)cc4)c4c(N)ncnc43)n(Cc3c(F)cccc3F)c(=O)c12` was less than 0.01 µM; that for `CN1CCN(CCNC(=O)CCCC#Cc2cccc3nc(Cn4nc(-c5ccc(O)cc5)c5c(N)ncnc54)n(Cc4ccccc4Cl)c(=O)c23)CC1` was less than 0.01 µM.
On to `Cc1nc(Cn2c(Cn3nc(-c4cccc(O)c4)c4c(N)ncnc43)nc3cccc(C#CCCCC(=O)N4CCOCC4)c3c2=O)cs1`, for which the IC50 at PIK3CD (Human) [2] is less than 0.01 µM.
Still for that read-out and setting: the value for `C#Cc1cccc2nc(Cn3nc(-c4ccc(O)cc4)c4c(N)ncnc43)n(Cc3cccc(Cl)c3F)c(=O)c12` was less than 0.01 µM; that for `CN(C)C1CCN(C(=O)CCCC#Cc2cccc3nc(Cn4nc(-c5ccc(O)cc5)c5c(N)ncnc54)n(Cc4ccccc4Cl)c(=O)c23)CC1` was less than 0.01 µM; that for `C#Cc1cccc2nc(Cn3nc(-c4ccc(O)cc4)c4c(N)ncnc43)n(Cc3cc(C)on3)c(=O)c12` was less than 0.01 µM.
For the compound `CN1CCCN(C(=O)CCCC#Cc2cccc3nc(Cn4nc(-c5cccc(O)c5)c5c(N)ncnc54)n(Cc4ccccc4Cl)c(=O)c23)CC1`, at PIK3CD (Human) [2], the IC50 was 0.01 to 1 µM.
Still for that read-out and setting: the value for `CC(C)NC(=O)CCCC#Cc1cccc2nc(Cn3nc(-c4cccc(O)c4)c4c(N)ncnc43)n(Cc3ccccc3Cl)c(=O)c12` was less than 0.01 µM; that for `C#Cc1cccc2nc(Cn3nc(-c4cccc(O)c4)c4c(N)ncnc43)n(Cc3ccc(S(C)(=O)=O)cc3)c(=O)c12` was less than 0.01 µM.
In the case of `CN(C)CCNC(=O)CCCC#Cc1cccc2nc(Cn3nc(-c4ccc(O)cc4)c4c(N)ncnc43)n(Cc3ccccc3Cl)c(=O)c12`, the IC50 at PIK3CD (Human) [2] is less than 0.01 µM.
Regarding `C#Cc1cccc2nc(Cn3nc(-c4ccc(O)cc4)c4c(N)ncnc43)n(Cc3ccccc3C(F)(F)F)c(=O)c12`, at PIK3CD (Human) [2], the IC50 is less than 0.01 µM.
`Nc1ncnc2c1c(-c1ccc(O)cc1)nn2Cc1nc2cccc(C#CCOc3ccccc3)c2c(=O)n1Cc1ccccc1Cl`: the IC50 on PIK3CD (Human) [2] is less than 0.01 µM.
Still for that read-out and setting: the value for `COC(=O)c1cccc(Cn2c(Cn3nc(-c4cccc(O)c4)c4c(N)ncnc43)nc3cccc(C#CCCCC(=O)N4CCOCC4)c3c2=O)c1` was less than 0.01 µM; that for `C#Cc1cccc2nc(Cn3nc(-c4ccc(O)cc4)c4c(N)ncnc43)n(Cc3ccccc3)c(=O)c12` was less than 0.01 µM.
In the case of `Nc1ncnc2c1c(-c1ccc(O)cc1)nn2Cc1nc2cccc(C#CCCCC(=O)NC3CCNC3)c2c(=O)n1Cc1ccccc1Cl` (centres undefined), the IC50 at PIK3CD (Human) [1] was less than 0.05 µM; on PIK3CD (Human) [2], less than 0.01 µM; against PIK3CG (human), less than 0.05 µM; at PIK3CA (human), 1.49 µM.
As for `Nc1ncnc2c1c(-c1ccc(O)cc1)nn2Cc1nc2cccc(C#CCOCc3ccccc3)c2c(=O)n1Cc1ccccc1Cl`, the IC50 on PIK3CD (Human) [2] was less than 0.01 µM.
Still for that read-out and setting: the value for `COCCN1CCN(C(=O)CCCC#Cc2cccc3nc(Cn4nc(-c5ccc(O)cc5)c5c(N)ncnc54)n(Cc4ccccc4Cl)c(=O)c23)CC1` was less than 0.01 µM.
